For one assay, the system named is PHA T cell blasts. Nature of the assay: CD69 expression of PHA T cell blasts at increasing plate-bound anti-CD3 mAb. In kind it is cell-based, human. The settings on record: augmenting concentrations of plate-bound anti-CD3 mAb; ±Mg^2+. As to the method:
FIG. 4: Magnesium regulates LFA-1 mediated T cell activation and cytotoxicity within physiologic range • (a) Metabolic flux analysis of human EM CD8 T cells upon supra-physiologic activation with anti-CD3 and anti-CD28 Ab, and additional injection of secondary, cross-linking anti-CD3/28 Ab, in medium containing 1.2 mM Mg^2+, 0 mM Mg^2+, or medium which was reconstituted to 1.2 mM Mg^2+ immediately prior to activation (0→1.2 mM Mg^2+). Pooled results from n=6 healthy donors from 3 independent experiments. (b) CD69 expression of PHA T cell blasts upon activation with indicated concentrations of plate-bound anti-CD3 mAb in ±Mg^2+ containing medium. (c) Caspase-3 activity in EL4 target cells after co-culture for 4 hours with murine WT and LFA-1^−/− CTLs in medium containing 1.2 mM Mg^2+ or 0 mM Mg^2+, in presence of PHA at the indicated concentrations. The effector to target cell ratio was 3:1. Pooled results, n=3-4, from 2 independent experiments. (d) Cytotoxicity assay using WT and LFA-1^−/− OT1 CTLs, co-cultured for 4 hours in medium containing 1.2 mM Mg^2+ or 0 mM Mg^2+ with luciferase-expressing EL4 target cells (pulsed with altered OVA peptides at 10^−6 M). Cytotoxicity was quantified after adding luciferin to medium and measuring luminescent signal intensity. […] Cytotoxicity was quantified after adding luciferin to medium and measuring luminescent signal intensity. […]

The test system of assay [1] is murine WT and LFA-1^−/− CTLs. Nature of the assay: Degranulation marker CD107a on murine WT and LFA-1−/− CTLs. In kind it is cell-based. The settings on record: 8 h anti-CD3/anti-CD28 Ab; 0 mM vs 1.2 mM Mg^2+.
The subject of a further assay is MC38-OVA tumor cells. Nature of the assay: Murine MC38-OVA tumor model, intratumoral MgCl2 vs NaCl in bilateral tumors. It counts as in vivo, mice. The settings on record: for Tumor growth: 3 mM MgCl2 intratumoral vs 3 mM NaCl in contralateral tumor, every third day. As to the method: FIG. 1: Intratumoral magnesium administration improves adaptive anti-tumor immunity. (a) Schematic of experimental design. B1/6 mice, either immunized with OVA or left untreated, were inoculated subcutaneously with MC38-OVA tumor cells bilaterally on the flanks. From day 7, injection of 3 mM NaCl solution was applied in left flank tumor, whereas 3 mM MgCl2 solution was injected in contralateral tumor. This regimen was repeated every third day for a total of 8 cycles. (b) Tumor growth curves in non-immunized mice (n=20) (left panel), and immunized mice (n=19) (right panel). (c) Tumor growth curves in ±CD8 depleted mice (n=6-17). Results were pooled from 2 independent experiments, with n=6-12 mice each. (d) Absolute numbers of tumor-infiltrating CD8^+ T cells. (e) Number of tumor-infiltrating CD8^+ T cells positive for Ki67 (left panel), Granzyme B (middle panel) and CD25 (right panel). (f) Cell number of tumor-infiltrating CD8^+ T cells expressing PD-1 and Tim3. (g) Schematic of experimental design. B1/6 mice, immunized with OVA, were inoculated subcutaneously with MC38-OVA tumor cells unilaterally on the flank. From day 5, intratumoral injections of either 3 mM NaCl or 3 mM MgCl2 were initiated, and repeated every third day for 8 cycles. Mice were additionally injected with 200 μg i.p. of isotype control (IgG2a) or anti-PD-1 Ab on day 9, 12, and 15. (h) Tumor growth curves (n=13-14) and (i) host survival (n=13-14). Results were pooled from 2 independent experiments (b, h, i). Unless stated otherwise, 6 to 12 weeks old female mice were used for experiments. In assays with pre-immunized mice, mice were immunized 19 days before tumor implantation by subcutaneous injection of 100 μg of OVA protein (Invivogen) and 50 μg of CpG-B ODN 1826 (Eurogentec), resuspended in 100 μL of PBS. For tumor implantation, mice were inoculated subcutaneously onto the flanks with 0.5×10^6 MC38-OVA cells, resuspended in 100 μL of PBS. In bilateral tumor experiments, mice received 50 μL intra-tumoral injections of either 3 mM NaCl or 3 mM MgCl2 (both diluted in ddH2O). Injections of NaCl solution was applied in left flank tumor, whereas MgCl2 solution was injected in contralateral tumor. I.t. injections were initiated once tumors were palpable, usually between day 5 and 10 after tumor injection. Injections were repeated every third day. Tumor size was quantified using a caliper and tumor volume was calculated using a rational ellipse formula (α2×β×π6, α being the shorter axis and β the longer axis). […] Tumor tissue was isolated from mice, weighed and minced using razor blades. Tissue was then digested using accutase (PAA), collagenase IV (Worthington), hyaluronidase (Sigma), and DNAse type IV (Sigma) for 60 min at 37° C. with constant shaking. The cell suspensions were filtered using a cell strainer (70 μm). Precision Counting beads (Biolegend) were added before staining to quantify the number of cells per gram of tumor. Single cell suspensions were blocked with rat anti-mouse FcγIII/II receptor (CD16/CD32) blocking antibodies (‘Fc-block’) and stained with live/dead cell-exclusion dye. Cells were then incubated with fluorophore-conjugated antibodies directed against cell surface antigens, washed and resuspended in FACS buffer (PBS+2% FBS). For intracellular/intranuclear antigens, cells stained with cell surface antibodies were fixed and permeabilized using Foxp3/transcription factor staining buffer (eBioscience) prior to incubation with antibodies directed against intracellular antigens. CD8 T cells are essential for antitumor immunity. To explore the role of Mg^2+ in the tumor microenvironment, and specifically its functional impact on T cell immunity, we examined the effect of intratumoral (i.t.) Mg^2+ administration in the MC38-OVA tumor model. Specifically, mice were either immunized against ovalbumin (OVA) or left untreated before subcutaneous implantation of OVA-expressing MC38 colorectal carcinoma cells bilaterally on the flanks. […]

For `[Mg+2]` [Mg^2+, Magnesium], the “CD69 expression of PHA T cell blasts” value in the assay on PHA T cell blasts was “less pronounced dependence”. In assay [1], the “CD107a degranulation of LFA-1^−/− CTLs” value is “unaffected” and the “CD107a degranulation of WT CTLs” value was “reduced CTL degranulation”. In addition, in the assay with MC38-OVA tumor cells (Mg^2+ treated vs NaCl tumors), the “Tumor-infiltrating CD8^+ T cells expressing PD-1 and Tim3” value is given as “significantly more often (co-)expressed”; the “Tumor-infiltrating CD8^+ T cells positive for CD25” value is on record as “more”; the “Tumor-infiltrating CD8^+ T cells positive for Granzyme B” value is recorded as “more”; the “Tumor-infiltrating CD8^+ T cells positive for Ki67” value is reported as “more”. Further, in the assay on MC38-OVA tumor cells (Mg^2+ treated vs NaCl tumors, flow cytometry), the “Number of tumor-infiltrating CD8^+ T cells” value was “increased”. For the same compound, in the assay on MC38-OVA tumor cells (OVA pre-immunized mice), the Tumor growth entry is on record as “significantly reduced tumor growth”. The Tumor growth result with MC38-OVA tumor cells (non-immunized mice) was “comparable”.

(Values after US20240010726A1, “LFA-1 SIGNALLING MEDIATOR FOR USE IN CANCER THERAPY” (Universität Basel, priority 2020, published 2024).)
